One series deals with HCT116 cells. Format: cell-based. Particulars: human. From the text:
These findings indicate that high molecular weight ubiquitin substrate complexes accumulating as a result of DUB inhibition can generate strong cytotoxicity that is insensitive to Bcl-2 over-expression. [table]

The subject of series [1] is isogenic clones of HCT116 colon cancer cells. Nature of the series: Apoptosis in isogenic HCT116 clones, caspase cleaved cytokeratin-18 ELISA. Format: cell-based. The protocol: The increase in sub G1 DNA content is associated with (i) activation of the apoptosis mediator caspase-3 and (ii) with cleavage of the caspase substrates poly-ADP ribose polymerase (PARP) and cytokeratin-18. […] Apoptosis induction by bortezomib is dependent on p53 and inhibited by overexpression of the Bcl-2 protein (16,17).
For determination of apoptosis parental HCT-116 p53+/+ cells were treated with the increasing doses of bortezomib or b-AP15 for 24 h. […] HCT-116 cells were seeded in 96-well microtiter plates at 10,000 cells per well and incubated overnight. Cells were treated with indicated drug for 24 h. At the end of the incubation period, NP40 was added to the tissue culture medium to 0.1% and 25 μl of the content of each well was assayed using the M30-Apoptosense® ELISA as previously described (43). Cell viability was determined by measuring acid phosphatase activity or using the FMCA method (44). For the acid phosphatase activity cells were seeded at 5000 cells per well in 96-well culture plates and incubated for 12 h at 37° C. Compounds were added to the cells in growth media and incubated for 72 h at 37° C. Cells were washed with 200 μl warm PBS. […] Absorbance was measured at 405 nm.
b-AP15 inhibits degradation of ubiquitin-tagged YFP in a proteasome reporter cell line (FIG. 1a). Levels of ^UbG76V-YFP accumulation were determined by flow cytometry and immunoblotting; immunoblot of ubiquitin conjugation in HCT-116 cells treated with b-AP15 (1 μM) or bortezomib (100 nM) (FIG. 1b). […] Immunoblot of ODC-1 levels in HCT-116 cells following treatment with bortezomib ([…] or b-Ap15 (1 μM) (FIG. 1d); values represent quantified optical density units of ODC-1 normalized to β-actin. Cell cycle profiles of b-AP15 treated HCT-116 cells (FIG. 1e); cells were analyzed by propidium iodide staining and flow cytometry. Levels of caspase activity in isogenic HCT-116 cells as determined by ELISA for caspase cleaved cytokeratin-18 (CK18-Asp398) following treatment with bortezomib (100 nM) or b-AP15 (1 μM) (**′P=0.01, ***′P=0.001) (FIG. 1f). […]
Background: ELISA stands for enzyme-linked immunosorbent assay.

The source of these data is patent US9856511B2, “Protease deubiquitinating inhibitor screening” (priority 2011, dated 2018).

On to `CC(C)C[C@H](NC(=O)[C@H](Cc1ccccc1)NC(=O)c1cnccn1)B(O)O` [bortezomib], for which, in the series on HCT116 cells, the “Fold induction DNAJB1 (Hsp40B1) mRNA” value came out at 5 fold, the “Fold induction HSPA1B mRNA” value is on record as 12 fold and the “Fold induction HSPA6 (Hsp70B′) mRNA” value turned out to be 60 fold. Moreover, the “apoptosis: effect of genetic disruption of BAX or PUMA” value in series [1] is given as “bortezomib-induced apoptosis is inhibited”.
